Series [1] concerns microorganisms. The series is described as follows: anti-microbial effect. The format is cell-based.
Series [2] can be described thus: stability of PR-1381 in solution. In kind it is physicochemical. On the procedure: Characteristic signals seen in an ^1 H-NMR-spectrum recorded immediately after dissolution of PR-1381 in deuterochloroform are listed in table E.
When the solution in deuterochloroform is allowed to stand at room temperature, these initial signals gradually disappear while methanol is liberated from the molecule, and finally after 10 hours, a spectrum is observed which is identical with that obtained from PR-1350 complex in deuterochloroform, except for an extra signal at δ=3.48, probably due to methanol liberated during the transformation of PR-1381 to the PR-1350 complex.

Structures are written as SMILES.

Take `COC1(O)C(O)OC(CC2(C)C(C)CCC3(C)C(C=O)=CCCC32)C12CO2` (stereo not shown) [PR-1381]: the antibiotic activity result in series [1] was “antibiotically active”. Besides, the “anti-microbial effect compared with PR-1350 complex” value in series [1] (qualitatively and quantitatively) is listed as “identical with that of the PR-1350 complex”. For the same compound, in series [2] (deuterochloroform, room temperature), the “time after which spectrum is identical with that of PR-1350 complex” value stood at 10 h. Moreover, the decomposition in solution result in series [2] (in solution) is reported as “decomposes to the PR-1350 complex with liberation of methanol”.
